Laboratory results taken from US4273775A, “Hydantoin derivatives, anti-diabetic compositions thereof, and method of use thereof” (Pfizer Inc., priority 1980, dated 1981).

What was measured:
[1] = tested on: sorbitol accumulation in the sciatic nerve of streptozotocinized rats; experiment: inhibition of sorbitol accumulation in the sciatic nerve of streptozotocinized (diabetic) rats; type: in vivo; conditions: measured 27 hours after induction of diabetes, vs untreated
Experimental: The activity of the compounds of the present invention, as agents for the control of chronic diabetic complications, is determined by their ability to successfully pass one or more of the following standard biological and/or pharmacological tests, viz., (1) measuring their ability to inhibit the enzyme activity of isolated aldose reductase; (2) measuring their ability to reduce or inhibit sorbitol accumulation in the sciatic nerve of acutely streptozotocinized (i.e., diabetic) rats; (3) measuring their ability to reverse already-elevated sorbitol levels in the sciatic nerve and lens of chronic streptozotocin-induced diabetic rats; (4) measuring their ability to prevent or inhibit galactitol formation in the lens of acutely galactosemic rats, and (5) measuring their ability to delay cataract formation and reduce the severity of lens opacities in chronic galactosemic rats. The following tetrahydroquinoline-derived spiro-hydantoin compounds of Examples 1 and 3-4, respectively, were tested for their ability to reduce or inhibit sorbitol accumulation in the sciatic nerve of streptozotocinized (i.e., diabetic) rats by the procedure essentially described in U.S. Pat. No. 3,821,383. In the present study, the amount of sorbitol accumulation in the sciatic nerves was measured 27 hours after induction of diabetes. The compounds were administered orally at the dose levels indicated at 4, 8 and 24 hours following the administration of streptozotocin. The results obtained in this manner are presented below in terms of percent inhibition (%) afforded by the test compound as compared to the case where no compound was administered (i.e., the untreated animal where sorbitol levels normally rise from approximately […]. tissue to as high as 400 mM/g. tissue in the 27-hour test period): […]

[2] = tested on: sorbitol levels in diabetic rats; experiment: control (inhibition) of the formation of sorbitol levels in diabetic rats, oral; type: in vivo; conditions: 5.0 mg./kg. to 25 mg./kg.
Description: As previously indicated, the tetrahydroquinoline-derived spiro-hydantoin compounds of this invention are all readily adapted to therapeutic use as aldose reductase inhibitors for the control of chronic diabetic complications, in view of their ability to reduce lens sorbitol levels in diabetic subjects to a statistically significant degree. […] The other compounds of this invention also cause similar results. Furthermore, all the herein described compounds of this invention can be administered by either the oral or parenteral routes of administration, for the present purposes at hand, without causing any significant untoward pharmacological side reactions to occur in the subject to whom they are so administered. In general, these compounds are ordinarily administered in dosages ranging from about 0.25 mg. to about 25 mg. per kg. of body weight per day, although variations will necessarily occur depending upon the weight and condition of the subject being treated and the particular route of administration chosen.

[3] = 5.0 mg./kg. orally at 4, 8 and 24 hours after streptozotocin

Structure (SMILES) | Percent Inhibition (%) of sorbitol accumulation in sciatic nerve [1, 3] | control (i.e., inhibit) the formation of sorbitol levels in diabetic rats [2] | Percent Inhibition (%) of sorbitol accumulation in sciatic nerve ([1]; 10 mg./kg. orally at 4, 8 and 24 hours after streptozotocin)
CN1CCC2(NC(=O)NC2=O)c2ccccc21.Cl (stereo not shown) [Product of Example 1, 1'-methyl-1',2',3',4'-tetrahydro-spiro-[imidazolidine-4,4'-quinoline]-2,5-dione hydrochloride] | 19% |  | 
O=C1NC(=O)C2(CCNc3cc(Cl)ccc32)N1 (stereo not shown) [Product of Example 3, 7'-chloro-1',2',3',4'-tetrahydro-spiro-[imidazolidine-4,4'-quinoline]-2,5-dione] | 23% |  | 
O=C1NC(=O)C2(CCNc3ccc(Cl)cc32)N1 (stereo not shown) [Product of Example 4, 6'-chloro-1',2',3',4'-tetrahydro-spiro-[imidazolidine-4,4'-quinoline]-2,5-dione] |  | consistently control (i.e., inhibit) the formation of sorbitol levels in diabetic rats to a significantly high degree | 80%
